The values below come from ChEMBL document CHEMBL5390311, “MAIP: An Open-Source Tool to Enrich High-Throughput Screening Output and Identify Novel, Druglike Molecules with Antimalarial Activity” (ACS Med Chem Lett, 2023).

Values after ≈ are worked out from the molar mass of the structure shown.

For data set [1], the system named is Plasmodium falciparum. Kind of data set: Antimalarial activity against Plasmodium falciparum 3D7 assessed as reduction in parasite growth. The class given is functional, organism-based.
For data set [2], the system named is Plasmodium falciparum. Kind of data set: Antimalarial activity against Plasmodium falciparum NF54 assessed as parasite growth inhibition at 2 uM relative to control. The class given is functional. To be noted: read-out: GI.
A short description of data set [3]: Octanol/water partition coefficient, logP of the compound. Type of data set: physicochemical.
A short description of data set [4]: Kinetic solubility of compound in 1-Octanol/PBS at pH 7.4 at 200 uM incubated for 2 hrs by shake flask method. The class given is physicochemical. To be noted: read-out: Kinetic_solubility.

Consider `Oc1cc(CN2CCC(O)(Cn3ccnc3)CC2)nc2c(Cl)cccc12`, for which the XC50 in data set [1] amounted to 882 nM.
For the molecule `OC1(CCCNC2CCN(C3CC3)C(c3ccccc3)C2)CCC1` (stereo unspecified), the inhibition of growth at 2 µM in data set [2] is -8%.
As for `COc1ccc(CN2CCN(c3ccncc3C)CC2)cc1Cn1cccn1`, the inhibition of growth at 2 µM in data set [2] was -15%.
With `COc1c(C2CCN(CCN3CCC(CNC(=O)c4ccc(-c5ccc(C#N)cc5)cc4)CC3)CC2)ccc2c1CCCC2`, the XC50 in data set [1] is 445 nM.
Turning to `COc1ccc(-c2cncc(C(=O)NCC3CCN(CCN(C)C)CC3)c2)cc1`, the logP in data set [3] (read-out: logP) worked out at 2.8.
The same measure, in the same setting: next, `Cc1c(CN2CCC(O)(Cn3ccnc3)CC2)[nH]c2c(Cl)cccc12`: 3.6.
Turning to `Cc1cnccc1N1CCCN(Cc2ccccc2OCCN2CCN(C)CC2)CC1`, in data set [3] (read-out: logP), the log partition coefficient (logP) came to 3.
For `c1ccc(-c2ccnc(C3CCN(CC45CNCC4C5)CC3)n2)cc1` (stereo unspecified), the log partition coefficient (logP) in data set [3] (read-out: logP) was 3.2. Also, in data set [4], the solubility kinetic at 2 h, 200 µM came out at 200 µM (≈ 66.9 µg/mL).
Consider `CN1CCC(Oc2ccc(NC(=O)c3cn4ccnc4s3)cn2)CC1`, for which the logP in data set [3] (read-out: logP) was found to be 2. Also, in data set [4], the solubility kinetic at 2 h, 200 µM was 200 µM (≈ 71.5 µg/mL).
On to `O=C(NC1CCN(CCOc2ccc(Cl)cc2)CC1)c1c[nH]c2ccncc2c1=O`, for which the logP in data set [3] is recorded as 2.5.
For `CN1CCN(CCCCNC2CC3CCC(C2)N3Cc2ccccc2)CC1` (stereo unspecified), in data set [3] (read-out: logP), the logP is 3.1. Besides, in data set [4], the solubility kinetic at 2 h, 200 µM worked out at 200 µM (≈ 74.1 µg/mL).
On to `CC1(N2CCC2)CCC(NCC2CCN(Cc3ccccc3)C2)CC1` (stereo unspecified), for which the logP in data set [3] (read-out: logP) amounted to 3.4.
Regarding `CC1CCN(Cc2cccc(C(=O)NCc3ccc(F)c(-c4ccc(CN5CCN[C@H](C)C5)cc4)c3)c2)CC1`, the XC50 in data set [1] was found to be 1460 nM.
